ChEMBL document CHEMBL1201862, “PubChem BioAssay data set” (2004)
Activity calls are given as the source filed them. Rule as the data show it, for most assays here: actives have a measured EC50 and inactives only a lower limit.

Key:
[1] = target: T1, Rac GTPase-activating protein 1 (Homo sapiens, UniProt Q9H0H5); assay: MgcRacGAP GTPase-activating activity inhibitors, confirmation, biochemical, ADP Hunter fluorescence, primary and confirmatory (AID 624330); format: functional
T1 sequence (Q9H0H5 whole entry): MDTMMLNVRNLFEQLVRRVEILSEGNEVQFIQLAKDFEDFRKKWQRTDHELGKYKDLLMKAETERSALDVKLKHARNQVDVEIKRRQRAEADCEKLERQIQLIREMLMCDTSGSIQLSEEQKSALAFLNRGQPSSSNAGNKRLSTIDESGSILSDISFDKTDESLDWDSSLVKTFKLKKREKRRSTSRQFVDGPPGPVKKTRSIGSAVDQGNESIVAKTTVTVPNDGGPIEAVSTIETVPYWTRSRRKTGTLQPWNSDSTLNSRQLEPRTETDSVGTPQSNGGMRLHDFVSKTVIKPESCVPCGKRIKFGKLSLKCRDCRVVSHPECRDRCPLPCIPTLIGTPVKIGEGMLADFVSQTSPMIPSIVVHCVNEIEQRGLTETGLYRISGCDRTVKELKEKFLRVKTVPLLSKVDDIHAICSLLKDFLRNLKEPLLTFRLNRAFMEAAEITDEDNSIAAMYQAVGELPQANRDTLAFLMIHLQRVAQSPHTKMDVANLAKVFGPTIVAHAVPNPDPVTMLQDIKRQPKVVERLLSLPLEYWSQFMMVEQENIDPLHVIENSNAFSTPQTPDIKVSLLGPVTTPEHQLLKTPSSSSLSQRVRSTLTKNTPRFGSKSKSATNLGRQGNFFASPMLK

[2] = inhibitors of intracellular T. cruzi replication, confirmation, NIH3T3 host cells, beta-gal luminescence (AID 2044); format: functional, cell-based;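 also: intracellular parasites grown in NIH/3T3 mouse fibroblasts as host cells; luminescent beta-galactosidase reporter signal from transgenic T. cruzi replicating inside host cells; inhibitors lower the luminescence signal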
[3] = cytotoxicity toward NIH3T3 fibroblasts, dose response, counter-screen, cell-based, ATP luminescence, mouse fibroblasts (AID 2010); format: functional;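 also: cells exposed to compound for about 90 hours before reading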
Streptococcus = assay: Group A Streptococcus viability loss, dose response, counter-screen for streptokinase expression inhibitor project, luminescence, BacTiterGlo (AID 1915); format: functional, organism-based;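 also: potency for reduction of bacterial viability or growth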
Streptokinase A = target: T2, Streptokinase A (Streptococcus pyogenes serotype M1, UniProt P10520); assay: S. pyogenes streptokinase expression inhibitors, potency, dose response, plasminogen activation absorbance, OD405 (AID 1914); format: functional, Streptococcus pyogenes M1 GAS;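 also: secreted streptokinase activity via plasminogen activation per viability signal from cell pellet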
T2 sequence (P10520 whole entry): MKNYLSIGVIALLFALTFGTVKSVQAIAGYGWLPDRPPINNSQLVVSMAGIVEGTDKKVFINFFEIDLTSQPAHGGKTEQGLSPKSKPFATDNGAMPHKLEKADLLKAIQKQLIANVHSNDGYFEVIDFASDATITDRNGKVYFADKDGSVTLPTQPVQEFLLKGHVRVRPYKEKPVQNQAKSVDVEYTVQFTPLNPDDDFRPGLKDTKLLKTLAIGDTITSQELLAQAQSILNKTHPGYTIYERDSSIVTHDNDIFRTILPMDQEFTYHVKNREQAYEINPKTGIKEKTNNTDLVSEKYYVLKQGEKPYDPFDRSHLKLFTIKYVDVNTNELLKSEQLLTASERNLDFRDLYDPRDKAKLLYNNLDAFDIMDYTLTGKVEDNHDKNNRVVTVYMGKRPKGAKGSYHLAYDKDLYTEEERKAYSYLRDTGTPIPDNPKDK

[4] = test system: Streptococcus sp. 'group A'; assay: growth inhibition of control SK(-) GAS strain, dose response, counter-screen for streptokinase expression inhibitor project, luminescence, kanamycin, BacTiterGlo, confirmation (AID 1900); format: functional, organism-based
[5] = HEp-2 cell cytotoxicity, dose response, cytotoxicity control for RSV inhibitor project, HTS (AID 2410); format: functional; settings: human respiratory syncytial virus
[6] = microbe, parasite or virus in culture; format: functional; settings: Mycobacterium tuberculosis
[7] = NIH-3T3 fibroblast cytotoxicity, dose response, cytotoxicity control, cell-based, fluorescence, Alamar Blue, secondary assay (AID 2327); format: functional;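 also: NIH-3T3 mouse fibroblasts cultured with fluconazole at 8 µg/mL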
INS1 = assay: beta cell apoptosis inhibitors, cytokine rescue, dose response, luminescence, retest (AID 449756); format: functional, cell-based; settings: Rattus norvegicus;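 also: cell death triggered by IL-1 beta plus TNF-alpha plus IFN-gamma mixture; protective hits raise ATP signal compared with cytokine alone wells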
[8] = C. albicans growth with fluconazole, confirmation, fluorescence, retest (AID 2467); format: functional, cell-based
[9] = growth suppression of beta-catenin-knockout colon cells, dose response, cell-based, HCT116, human colon tumor (AID 1045); format: functional;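 also: HCT116 colon tumor cells with beta catenin knocked out; cells exposed to compound for 60 hours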
[10] = growth suppression of PTEN-null colon cells, dose response, cell-based, HCT116 PTEN knockout (AID 1047); format: functional;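 also: HCT116 colon tumor cells with PTEN knocked out; cells exposed to compound for 60 hours before readout; potency for loss of cell viability measured by luminescence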
[11] = target: Luciferin 4-monooxygenase (Photinus pyralis, UniProt P08659); assay: firefly luciferase enzyme inhibitors, dose response, biochemical, luminescence (AID 1891)
Sequence of Luciferin 4-monooxygenase (P08659 whole entry): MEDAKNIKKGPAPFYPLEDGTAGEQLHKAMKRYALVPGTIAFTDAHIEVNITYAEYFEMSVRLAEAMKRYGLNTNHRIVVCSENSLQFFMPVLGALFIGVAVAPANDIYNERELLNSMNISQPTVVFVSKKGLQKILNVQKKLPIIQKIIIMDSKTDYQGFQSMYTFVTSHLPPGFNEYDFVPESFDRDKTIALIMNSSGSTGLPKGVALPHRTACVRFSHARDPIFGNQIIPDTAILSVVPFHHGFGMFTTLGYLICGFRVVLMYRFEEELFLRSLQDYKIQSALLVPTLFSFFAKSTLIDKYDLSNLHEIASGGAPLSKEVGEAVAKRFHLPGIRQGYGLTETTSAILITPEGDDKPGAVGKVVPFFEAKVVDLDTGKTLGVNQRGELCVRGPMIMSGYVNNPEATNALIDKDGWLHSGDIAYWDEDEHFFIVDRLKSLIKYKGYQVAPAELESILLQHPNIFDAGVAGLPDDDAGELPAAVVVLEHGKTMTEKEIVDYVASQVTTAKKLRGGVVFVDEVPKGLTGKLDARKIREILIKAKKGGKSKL

[12] = Luminescence Cell-Based Dose Confirmation HTS to Identify Inhibitors of Platelet Dense Granule Release. [Related pubchem assays: 1663 (Primary HTS), 1678 (Summary of Project)]; format: functional
H4 = assay: Luminescence Cell-Based Dose Response HTS to Identify Activators of 5'UTR Stem-Loop Driven Prion Protein mRNA Translation in H4 Neuroglioblastoma Cells. [Related pubchem assays: 1829 (Project Summary), 1814 (Primary HTS)]; format: functional; settings: Homo sapiens
[13] = Luminescence Cell-Based Dose Response HTS to Identify Activators of Luciferase Translation or Activity in H4 […] Cells. [Related pubchem assays: 1829 (Project Summary), 1814 (Primary HTS)]; format: functional
[14] = Luminescence Cell-Based Dose Confirmation HTS to Identify Activators of 5'UTR Stem-Loop Driven Alpha-Synuclein mRNA Translation in H4 Neuroglioblastoma Cells. [Related pubchem assays: 1829 (Project Summary), 1814 (Primary HTS)]; format: functional
[15] = Luminescence Cell-Based Dose Retest to Confirm Inhibitors of Cancer Stem Cells. [Related pubchem assays (depositor defined):AID2717, AID2721]; format: functional; settings: Homo sapiens

CCOc1ccccc1/C=c1\sc2ncnn2c1=O
IC50 [1]: 48.7 µM (active)

Oc1ccc(Cc2ccc(Cl)cc2)c(O)c1
IC50 [1]: 69.5 µM (active)

CC(C)c1ccc2[nH]c(O)c(N=NC(=O)c3cccc(S(=O)(=O)N4CCCCC4)c3)c2c1
EC50 [2]: 0.58 µM (active)
EC50 [3]: > 60 µM (not active)
EC50 (Streptococcus): 110 µM (active)
EC50 (Streptokinase A): > 150 µM (not active)
EC50 [4]: 4.39 µM (active)
CC50 [5]: 7.69 µM (active)

COc1cc(/C=N/NC(=O)CCC(=O)Nc2ccc(F)cc2)ccc1O
IC50 [1]: 35.8 µM (active)

O=C(NCc1ccccn1)C(=O)Nc1nc(C23CC4CC(CC(C4)C2)C3)cs1
CC50 [6]: 36 µM (active)
EC50 (Streptococcus): 6.91 µM (active)
EC50 [4]: 1.66 µM (active)

CC1(C)CC(N2CCN(Cc3ccccc3)CC2)=CC(=[N+]2CCCCC2)C1
EC50 [2]: 0.289 µM (active)
EC50 [3]: > 60 µM (not active)
EC50 [7]: > 160 µM (inactive)
AC50 (INS1): 2.16 µM (active)
EC50 [8]: 2.72 µM (active)

Cc1cc2cc(C)c3nnc(SCC(=O)Nc4ccc(S(=O)(=O)N5CCCCC5)cc4)n3c2cc1C
EC50 [9]: 7.24 µM (active)
EC50 [10]: 7.79 µM (active)

Cc1cccc2c(N)c3c(nc12)N(C)CC3
IC50 [1]: 115 µM (active)

O=[N+]([O-])c1ccc(N=Nc2ccc(O)cc2O)cc1
EC50 [11]: 1.05 µM (active)
EC50 [12]: 3 µM (active)
EC50 (Streptococcus): 24.6 µM (active)
EC50 (Streptokinase A): > 50 µM (not active)
EC50 [4]: 2.44 µM (active)

Cc1ccc(/C=C/C2=NN(Cc3ccccc3Cl)C(=O)CC2)cc1
CC50 [5]: 16.6 µM (active)

O=C1C(/C=N/CCCN2CCCC2=O)=C(O)c2ccccc21
EC50 (H4): 12.9 µM (active)
EC50 [13]: 5.6 µM (active)
EC50 [14]: 14.8 µM (active)

O=[N+]([O-])c1ccc(-n2cnc3ccccc32)c([N+](=O)[O-])c1
EC50 [2]: 0.485 µM (active)
EC50 [3]: > 60 µM (inconclusive)
AC50 (INS1): 14.3 µM (active)

O=C(Cn1c(=O)oc2cc(S(=O)(=O)N3CCCCC3)ccc21)N1CCc2ccccc21
EC50 [9]: 16.9 µM (active)
EC50 [10]: 18.4 µM (active)

CSC(S)=NCc1cccnc1
CC50 [6]: 9.84 µM (active)
EC50 [7]: > 160 µM (inactive)
EC50 [8]: 1.13 µM (active)

CCOc1ccc(-c2c(=O)n(OCc3ccc([N+](=O)[O-])cc3)c3ccccc3[n+]2[O-])cc1
EC50 (H4): > 120 µM (not active)
EC50 [13]: > 120 µM (not active)
EC50 [14]: > 120 µM (not active)

Nc1ncccc1OCc1ccc(Cl)c(Cl)c1
CC50 [5]: 9.61 µM (active)

Cc1ccc(C(=O)N2N=C(c3ccc(NS(C)(=O)=O)cc3)CC2c2cccs2)cc1 (centres undefined)
CC50 [6]: > 40 µM (active)

CC[C@H](C)Cc1cn([C@@H](CCCCNC(=O)OC(C)(C)C)C(=O)NCCCCCCCCCCC(=O)N2CCN(C(=O)OC(C)(C)C)CC2)nn1
AC50 (INS1): 7.02 µM (active)

COc1ccc(C2Nc3ccc4ccccc4c3-c3c2c(=O)oc2ccccc32)cc1 (centres undefined)
EC50 [2]: 0.204 µM (active)
EC50 [9]: 9.13 µM (active)
EC50 [3]: > 60 µM (not active)
EC50 [10]: 9 µM (active)

Cc1ccc2nc(-c3cccc(-c4cccc(Cl)c4)c3)c(NCc3ccccc3)n2c1
AC50 [15]: 4.01 µM (active)
AC50 (INS1): 7.9 µM (active)
